The values below are quoted from earlier work in patent EP1707213A1, “Herbal composition for the treatment of cutaneous Erythema” (Kern, Elisabeth, priority 2005, dated 2006).

SMILES strings stand for the structures. Like-named read-outs stand apart in the source and are kept apart here.

The test system of series [1] is Patienten.
For series [2], the system named is durch Doxil induziertes Hand-Fuß-Syndrom. As to conditions: patients with hand-foot syndrome of Grade 2 bis 4 under Doxil.

`CCCCCOC(=O)Nc1nc(=O)n([C@@H]2O[C@H](C)[C@@H](O)[C@H]2O)cc1F` [Capecitabin, N4-Pentyloxycarbonyl-5'desoxy-Fluorocytidin]: in series [1] (in vivo), the “palmoplantare Erythrodysästhesie als häufigste Nebenwirkung” value was 50 % der Patienten.
In the case of `C[C@@H]1C[C@H]2[C@@H]3CCC4=CC(=O)C=C[C@]4(C)[C@@]3(F)[C@@H](O)C[C@]2(C)[C@@]1(O)C(=O)CO` [Dexamethason], in series [2], the “Fortführung der Chemotherapie mit der ursprünglichen Dosierung von Doxil” value is given as “möglich”.
As to `O=c1[nH]cc(F)c(=O)[nH]1` [Zusammensetzung 5-FU, 5-Fluorouracil], the “palmoplantare Erythrodysästhesie als häufigste Nebenwirkung” value in series [1] (use as cytostatic) is recorded as 50 % der Patienten.
